Measurements as given in the NIST ThermoML archive (doi:10.1016/j.jct.2019.06.011).
Numbers after ± are expanded uncertainties.

Details: Liquid, Gas chromatography

CC(C)=CCC[C@@H](C)c1ccc(C)cc1 [(-)-α-curcumene]
Details | vapor or sublimation pressure [kPa]
298.15 K | 0.00097 ± 0.0001
310 K | 0.003 ± 0.0003
320 K | 0.007 ± 0.0007
330 K | 0.015 ± 0.002
340 K | 0.032 ± 0.003
350 K | 0.063 ± 0.006
360 K | 0.12 ± 0.012
370 K | 0.21 ± 0.021
380 K | 0.37 ± 0.037
390 K | 0.62 ± 0.062
400 K | 0.99 ± 0.1
410 K | 1.6 ± 0.16
420 K | 2.4 ± 0.24
430 K | 3.5 ± 0.35
440 K | 5.1 ± 0.51
450 K | 7.3 ± 0.73
460 K | 10 ± 1
470 K | 14 ± 1.4
480 K | 19 ± 1.9
490 K | 25 ± 2.5
500 K | 33 ± 3.3
510 K | 42 ± 4.2
520 K | 54 ± 5.4
530 K | 68 ± 6.8
540 K | 85 ± 8.5
548.3 K | 101.3 ± 10

C=C1C=C[C@@H]([C@@H](C)CCC=C(C)C)CC1 [β-sesquiphellandrene]
Details | vapor or sublimation pressure [kPa]
298.15 K | 0.00063 ± 6e-05
310 K | 0.002 ± 0.0002
320 K | 0.0048 ± 0.0005
330 K | 0.011 ± 0.001
340 K | 0.023 ± 0.002
350 K | 0.046 ± 0.005
360 K | 0.087 ± 0.009
370 K | 0.16 ± 0.016
380 K | 0.28 ± 0.028
390 K | 0.47 ± 0.047
400 K | 0.76 ± 0.076
410 K | 1.2 ± 0.12
420 K | 1.8 ± 0.18
430 K | 2.8 ± 0.28
440 K | 4 ± 0.4
450 K | 5.8 ± 0.58
460 K | 8.2 ± 0.82
470 K | 11 ± 1.1
480 K | 15 ± 1.5
490 K | 20 ± 2
500 K | 27 ± 2.7
510 K | 35 ± 3.5
520 K | 45 ± 4.5
530 K | 57 ± 5.7
540 K | 71 ± 7.1
556.5 K | 101.3 ± 10

CC(C)=CCC[C@H](C)[C@@H]1C=CC(C)=CC1 [zingiberene]
Details | vapor or sublimation pressure [kPa]
298.15 K | 0.00081 ± 8e-05
310 K | 0.0025 ± 0.0003
320 K | 0.006 ± 0.0006
330 K | 0.013 ± 0.001
340 K | 0.028 ± 0.003
350 K | 0.056 ± 0.006
360 K | 0.11 ± 0.011
370 K | 0.19 ± 0.019
380 K | 0.33 ± 0.033
390 K | 0.56 ± 0.056
400 K | 0.91 ± 0.091
410 K | 1.4 ± 0.14
420 K | 2.2 ± 0.22
430 K | 3.3 ± 0.33
440 K | 4.8 ± 0.48
450 K | 6.8 ± 0.68
460 K | 9.6 ± 0.96
470 K | 13 ± 1.3
480 K | 18 ± 1.8
490 K | 24 ± 2.4
500 K | 31 ± 3.1
510 K | 41 ± 4.1
520 K | 52 ± 5.2
530 K | 66 ± 6.6
540 K | 83 ± 8.3
549.5 K | 101.3 ± 10
